This is an account of results in ChEMBL document CHEMBL3588798, “Non-peptide ligand binding to the formyl peptide receptor FPR2--A comparison to peptide ligand binding modes” (Bioorg Med Chem, 2015).

Each structure is given as a SMILES string.

Experiment [1] has as its target T1, N-formyl peptide receptor 2 (Homo sapiens, UniProt P25090).
T1 sequence (P25090 whole entry): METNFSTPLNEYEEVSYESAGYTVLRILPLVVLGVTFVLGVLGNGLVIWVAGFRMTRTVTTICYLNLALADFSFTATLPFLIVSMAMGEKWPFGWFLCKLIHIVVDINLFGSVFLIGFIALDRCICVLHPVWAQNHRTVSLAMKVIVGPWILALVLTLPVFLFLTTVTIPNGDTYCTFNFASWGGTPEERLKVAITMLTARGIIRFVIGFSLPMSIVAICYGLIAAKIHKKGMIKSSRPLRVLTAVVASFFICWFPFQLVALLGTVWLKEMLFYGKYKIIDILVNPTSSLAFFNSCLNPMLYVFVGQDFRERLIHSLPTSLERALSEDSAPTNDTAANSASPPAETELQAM
Description: Agonist activity at human FPR2 expressed in rat RBL-2H3 cells by intracellular Ca2+ mobilization assay. It counts as functional, cell-based. (In general: A change in cytosolic calcium serves as a functional read-out for many receptors and channels.)

Experiment [2] concerns the target T1, N-formyl peptide receptor 2. Description: Antagonist activity against human FPR2 expressed in rat RBL-2H3 cells pre-treated for 15 mins before addition of WKYMVm or C1 by intracellular Ca2+ mobilization assay. It counts as functional, cell-based.
For experiment [3] the target is unchanged. Description: Agonist activity against human FPR2 expressed in human HL60 cells by Fluo-4AM dye based intracellular Ca2+ mobilization assay. It counts as functional, cell-based, HL-60.
Experiment [4] shares this target. Description: Allosteric antagonist activity against FPR2 (unknown origin).
Experiment [5] shares this target. Description: Agonist activity at FPR2 (unknown origin) by Fluo4 florescence based intracellular Ca2+ mobilization assay. It counts as functional, cell-based.
Experiment [6] shares this target. Description: Antagonist activity against FPR2 (unknown origin) pre-treated for 5 mins before addition of Wpep by Fluo4 florescence based intracellular Ca2+ mobilization assay. It counts as functional, cell-based.

On to `CCCCOc1ccc(C(=O)NN2Cc3ccccc3NC2c2ccc(C)cc2)cc1` (stereo not drawn), for which, in experiment [1], the response was half-maximal at 1480 nM (EC50). The IC50 (in general, the concentration needed to halve the response being measured) in experiment [2] came to 170 nM.
Take `CCOC(=O)C1CCCN(C(=O)[C@H](Cc2ccccc2)NC(=O)Nc2ccc(Br)cc2)C1` (stereo partly drawn): in experiment [3], the EC50 – broadly, the concentration needed to bring the measured effect to its halfway point – is 7 nM.
Same read-out and setting: the value for `O=C(Nc1ccc(Cl)cc1)N[C@@H](Cc1ccccc1)C(=O)N1CCCCC1` was 50 nM; that for `CSc1ccc(NC(=O)N[C@@H](Cc2ccccc2)C(=O)N2CCCCC2)cc1` was 300 nM; that for `CCc1ccc(NC(=O)CSc2nc3cc(OC)ccc3[nH]2)cc1` was 3200 nM.
The same measure, in the same setting: the value for `CCOC(=O)C1CCN(C(=O)[C@H](Cc2ccccc2)NC(=O)Nc2ccc(Br)cc2)CC1` was 160 nM.
As for `CCCCCCCCCCCCCCCC(=O)N[C@@H](CCCCN)C(=O)N(CCC(=O)N[C@@H](CCCCN)C(=O)N(CCC(=O)N[C@@H](CCCCN)C(=O)N(CCC(=O)N[C@@H](CCCCN)C(=O)N(CCC(=O)N[C@@H](CCCCN)C(=O)N(CCC(=O)N[C@@H](CCCCN)C(=O)N(CCC(N)=O)[C@@H](C)c1ccccc1)[C@@H](C)c1ccccc1)[C@@H](C)c1ccccc1)[C@@H](C)c1ccccc1)[C@@H](C)c1ccccc1)[C@@H](C)c1ccccc1`, in experiment [4], the IC50 was determined as 50 nM.
On to `COc1ccc(CCNC(=O)Nc2ccc(Cl)cc2)cc1`, for which the concentration for a half-maximal effect (EC50) in experiment [3] came to 400 nM.
In turn, `O=C(Nc1ccc(Br)cc1)N[C@@H](Cc1ccccc1)C(=O)N1CCCC1` yielded an EC50 in experiment [3] of 140 nM.
For the compound `CCCCOc1ccc(C(=O)NN2Cc3ccccc3NC2c2ccc(O)cc2)cc1` (stereo not drawn), the IC50 in experiment [2] was found to be 6650 nM.
`COc1ccc2[nH]c(SCC(=O)Nc3ccccc3Br)nc2c1` had a concentration for a half-maximal effect (EC50) in experiment [3] of 4030 nM.
As to `COC(=O)Nc1cccc(NC(=O)CSc2nc3cc(OC)ccc3[nH]2)c1`, in experiment [3], the EC50 turned out to be 7300 nM.
Compound `CCCCOc1ccc(C(=O)NN2Cc3ccccc3NC2c2ccc(OC)cc2)cc1` (stereo not drawn) came in with a concentration giving a half-maximal response (EC50) in experiment [1] of 470 nM. The IC50 in experiment [2] is 90 nM.
`CCOc1ccc2[nH]c(SCC(=O)Nc3ccccc3SC)nc2c1` showed a 50% effective concentration (EC50) in experiment [3] of 8000 nM.
Still for that read-out and setting: the value for `COc1ccc(CCNC(=O)Nc2ccc(F)cc2)cc1` was 900 nM; that for `COc1ccc2[nH]c(SCC(=O)Nc3ccc(C(C)=O)cc3)nc2c1` was 6000 nM; that for `COc1ccc(CCNC(=O)Nc2ccccc2)cc1` was 3000 nM.
For `CCC[C@H]1CNC(=O)C(=O)N1C[C@@H]1CCCN1C[C@@H](Cc1ccc2ccccc2c1)N1C[C@@H](Cc2ccc(O)cc2)N(CC2CCCCC2)C(=O)C1=O`, the EC50 in experiment [5] amounted to 140 nM.
Turning to `COc1ccc2[nH]c(SCC(=O)Nc3ccc(OC)c(OC)c3)nc2c1`, a half-maximal effect in experiment [3] (EC50) was put at 4700 nM.
Turning to `CC(C)[C@H]1CNC(=O)C(=O)N1C[C@@H]1CCCN1C[C@@H](Cc1ccc2ccccc2c1)N1C[C@@H](Cc2ccc(O)cc2)N(CC2CCCCC2)C(=O)C1=O`, the IC50 in experiment [6] came out at 80 nM.
As to `COc1ccc(CCNC(=O)Nc2ccc(Br)cc2)cc1`, in experiment [3], the EC50 came out at 100 nM.
Still for that read-out and setting: the value for `O=C(Nc1ccc(Br)cc1)N[C@@H](Cc1ccccc1)C(=O)N1CCCCC1` was 40 nM.
Still for that read-out and setting: the value for `CCOC(=O)C1CCN(C(=O)[C@H](Cc2c[nH]c3ccccc23)NC(=O)Nc2ccc(Br)cc2)CC1` was 130 nM; that for `COc1ccc2[nH]c(SCC(=O)Nc3ccccc3Cl)nc2c1` was 10000 nM.
On the same count and under the same terms, for `O=C(Nc1ccc(Br)cc1)N[C@@H](Cc1ccccc1)C(=O)NN1CCCCNC1=O` the value was 4 nM; for `O=C(Nc1ccc(Br)cc1)N[C@@H](Cc1ccccc1)C(=O)N1CCc2ccccc21`, 250 nM.
